Experimental findings from publication PMC7707092, “Discovery and characterization of ORM‐11372, a novel inhibitor of the sodium‐calcium exchanger with positive inotropic activity” (British Journal of Pharmacology, 2020) are described below.

pIC50: −log10 of the molar value. Like-named read-outs stand apart in the source and are kept apart here.

The target of one data set is hNCX1 (Homo sapiens, UniProt P32418). The data set can be described thus: Confirmatory fluorescence assay for hNCX1 inhibition (forward mode, HEK293 cells, Charles River). It counts as cell-based. As to conditions: HEK293, forward mode. The procedure:
A confirmatory hNCX1 inhibition assay was performed in Charles River Laboratories, Cleveland. Briefly, HEK293 cells stably expressing hNCX1 were plated in 384‐well black wall, clear‐bottom microtitre plates and the next day loaded with Fluo‐8 for 30 min at 37°C. A plate was inserted into a FLIPR^TETRA, and a baseline was recorded during a preincubation period where test compound or vehicle in a Na^+‐free HB‐PS containing thapsigargin (6 μM) and […] (30 μM) was added to each well for ~5 min. Next, the NCX1 stimulation period was recorded in which Na^+‐containing HB‐PS (with 2‐μM thapsigargin and 10‐μM FCCP) was added. The experiments were performed at room temperature. The kinetic data generated were reduced for each well to maximum relative fluorescence units (RFU) minus minimum RFU after subtracting bias based on the first sample. The mean of the max–min RFU values during the stimulation period for the 3–4 replicates at each concentration on a plate was then plotted versus concentration and fitted to a Hill equation.

Another data set has as its system L‐type calcium channel. As to the kind of experiment: L‐type calcium channel inhibition, fluorescence assay in IMR‐32 cells. The class given is cell-based, human. As to conditions: KCl depolarization, n=4 assays, read-out: L‐type Ca^2+ IC50. The method, then:
CHO cells stably expressing either hERG1a (KV11.1) channels (KCNH2; RRID:CVCL_H512) or human 5‐HT2B receptors were cultured at 37°C in a 5% CO2/95% air atmosphere in the Ham's Nutrient Mixture F‐12 (HAM F‐12) medium supplemented with 10% FBS (heat inactivated), 100 μg·ml^−1 of hygromycin B (Invitrogen), and 100 μg·ml^−1 of geneticin or 100 IU·ml^−1 of penicillin and 100 IU·ml^−1 of streptomycin, 25‐mM HEPES, 500 μg·ml^−1 of geneticin, and 250 μg·ml^−1 of Zeocin®. Adhered cells were detached using either Detachin® solution or trypsin and replated twice a week. HEK 293 (RRID:CVCL_0045) and IMR‐32 cells (CCL‐127; RRID:CVCL_0346) were cultured similarly but maintained instead in DMEM, supplemented with 10% FBS (heat inactivated), 100 IU·ml^−1 of penicillin and 100 IU·ml^−1 of streptomycin, and 25‐mM HEPES, and in the case of the IMR‐32 cell line, with minimum essential medium (MEM) non‐essential amino acids. IMR‐32 cells are derived from a human neuroblastoma and endogenously express L‐type (CaV1.x) calcium channel (Sher, Gotti, Pandiella, Madeddu, & Clementi, 1988).
Undifferentiated IMR‐32 cells were harvested, centrifuged, and resuspended in a probenecid‐Ringer solution consisting (in mM) 150 NaCl, 3 KCl, 1.2 MgCl2, 1 CaCl2, 20 HEPES, 5 glucose and 2.5 probenecid (pH 7.4 adjusted with NaOH, osmolarity 320–324 mOsm). We added 0.04% Pluronic F‐127 and Fluo‐4 to this solution, and after incubating the cells for 30 min at room temperature, these additives were removed from the probenecid‐Ringer solution by centrifugation and resuspension. The cell suspension was pipetted (250,000 cells in 75 μl per well) into a 96‐well plate, into which the test compound (75 μl per well at […] the final concentration; five concentrations with eight replicates) had already been added. The plate was centrifuged once (5 min, at 287 x g) to ensure that the cells were moved to the bottom of the wells. FLEXstation was then used to measure the increase in intracellular calcium at 37°C, following depolarization, which was induced by the addition (50 μl per well) of a KCl‐Ringer solution containing (in mM) 200 KCl, 20 CaCl2, 1.2 MgCl2, 20 HEPES and 2.5 probenecid respectively (pH adjusted to 7.4 with KOH, with an osmolarity of 320–324 mOsm).

The target of the next data set is hERG (Homo sapiens, UniProt Q12809). As to the kind of experiment: hERG IC50 of Table 1 / Table S2 (method not assigned). The class given is cell-based. The conditions noted are these: n=4 assays.
In the next data set the target is T1, MAO A (Homo sapiens, UniProt P21397).
T1 sequence (P21397 1-527): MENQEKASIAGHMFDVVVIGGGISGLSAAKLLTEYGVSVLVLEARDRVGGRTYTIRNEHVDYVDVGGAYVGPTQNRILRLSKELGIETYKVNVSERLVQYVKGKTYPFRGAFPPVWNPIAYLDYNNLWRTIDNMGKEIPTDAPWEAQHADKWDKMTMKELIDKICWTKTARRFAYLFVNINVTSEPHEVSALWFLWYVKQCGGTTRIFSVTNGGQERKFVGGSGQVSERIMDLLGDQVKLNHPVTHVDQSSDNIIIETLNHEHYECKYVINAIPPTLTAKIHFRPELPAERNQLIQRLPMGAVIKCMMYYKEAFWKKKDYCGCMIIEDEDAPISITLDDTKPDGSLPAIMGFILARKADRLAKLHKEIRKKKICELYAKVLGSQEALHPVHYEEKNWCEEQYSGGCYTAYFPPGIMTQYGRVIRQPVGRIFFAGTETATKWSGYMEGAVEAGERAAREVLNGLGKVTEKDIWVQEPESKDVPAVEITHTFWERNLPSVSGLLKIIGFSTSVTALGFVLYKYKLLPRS
The data set can be described thus: MAO A inhibition (Table S2). The class given is biochemical.

The target in another data set is T2, MAO B (Homo sapiens, UniProt P27338).
T2 sequence (P27338 1-520): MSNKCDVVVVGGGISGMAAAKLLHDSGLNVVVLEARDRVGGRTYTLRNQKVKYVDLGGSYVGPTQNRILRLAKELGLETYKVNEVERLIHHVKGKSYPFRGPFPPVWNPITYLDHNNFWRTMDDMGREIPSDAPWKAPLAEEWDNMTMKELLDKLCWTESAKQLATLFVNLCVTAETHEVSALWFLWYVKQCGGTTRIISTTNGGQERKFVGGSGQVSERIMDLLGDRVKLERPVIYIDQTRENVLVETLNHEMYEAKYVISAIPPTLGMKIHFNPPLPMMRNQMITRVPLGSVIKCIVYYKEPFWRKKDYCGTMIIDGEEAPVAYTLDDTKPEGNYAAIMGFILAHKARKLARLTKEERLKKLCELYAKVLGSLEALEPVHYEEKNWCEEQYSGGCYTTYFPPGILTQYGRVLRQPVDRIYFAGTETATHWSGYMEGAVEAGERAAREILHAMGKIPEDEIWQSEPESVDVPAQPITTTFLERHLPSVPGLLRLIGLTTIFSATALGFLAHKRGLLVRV
The data set can be described thus: MAO B inhibition (Table S2). It counts as biochemical.

The mark [1] stands for this setting: Table S2, read-out: hNCX1-HEK IC50.

Chain of hERG (Q12809 whole entry): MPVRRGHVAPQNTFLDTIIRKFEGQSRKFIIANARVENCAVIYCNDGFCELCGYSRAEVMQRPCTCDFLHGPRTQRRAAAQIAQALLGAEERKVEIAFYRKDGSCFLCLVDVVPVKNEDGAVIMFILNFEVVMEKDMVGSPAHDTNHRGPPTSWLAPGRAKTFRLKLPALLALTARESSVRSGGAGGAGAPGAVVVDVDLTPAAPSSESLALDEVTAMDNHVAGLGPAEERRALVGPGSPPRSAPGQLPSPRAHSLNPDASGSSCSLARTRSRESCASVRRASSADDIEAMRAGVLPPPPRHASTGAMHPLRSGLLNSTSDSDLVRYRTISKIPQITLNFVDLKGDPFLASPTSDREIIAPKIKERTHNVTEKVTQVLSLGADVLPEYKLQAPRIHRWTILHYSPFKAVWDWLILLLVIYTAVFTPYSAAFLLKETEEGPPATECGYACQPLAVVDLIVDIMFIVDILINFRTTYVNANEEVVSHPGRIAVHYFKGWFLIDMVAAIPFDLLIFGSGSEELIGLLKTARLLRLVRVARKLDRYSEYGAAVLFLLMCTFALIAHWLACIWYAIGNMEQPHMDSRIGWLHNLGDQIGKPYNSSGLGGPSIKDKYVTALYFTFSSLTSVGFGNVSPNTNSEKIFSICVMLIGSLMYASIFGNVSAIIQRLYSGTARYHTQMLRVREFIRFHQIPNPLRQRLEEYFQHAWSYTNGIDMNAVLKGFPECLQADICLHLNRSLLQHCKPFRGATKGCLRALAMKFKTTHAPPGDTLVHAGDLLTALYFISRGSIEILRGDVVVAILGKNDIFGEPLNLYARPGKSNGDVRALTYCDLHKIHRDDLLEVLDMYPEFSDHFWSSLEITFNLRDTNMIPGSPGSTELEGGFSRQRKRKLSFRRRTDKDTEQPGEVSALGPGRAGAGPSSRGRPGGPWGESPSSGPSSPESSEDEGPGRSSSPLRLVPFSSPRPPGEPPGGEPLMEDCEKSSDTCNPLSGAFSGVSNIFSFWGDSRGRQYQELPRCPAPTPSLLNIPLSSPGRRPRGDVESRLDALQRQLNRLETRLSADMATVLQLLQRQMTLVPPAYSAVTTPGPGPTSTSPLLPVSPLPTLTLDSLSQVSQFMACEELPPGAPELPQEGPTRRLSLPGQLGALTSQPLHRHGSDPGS

Regarding `O=C(CN1CCC(O)CC1)Nc1ccc(Oc2ccc3c(c2)CCC(c2ccccc2)O3)nc1` (stereo not shown) [ORM-10962], the pIC50 at hNCX1 (setting [1]) is 6.20; in the data set on L‐type calcium channel, 4.94; against hERG, 5.47. Moreover, on MAO A (10 μM), the “MAO A inhibition” value is reported as 11%. Further, the “MAO B inhibition” value at MAO B (10 μM) came out at 52%.
In the case of `Nc1cccc(-c2ccc(CNc3ccc(F)cc3)o2)c1` [ORM‐11372], the pIC50 at hNCX1 (0.3% DMSO, read-out: IC50 hNCX1 calcium efflux signal) is 6.85; at hNCX1 (1% DMSO, read-out: IC50 hNCX1 calcium efflux signal) it was 6.79; in the data set with L‐type calcium channel it was 5.21; at hERG, 4.97. For the same compound, the results for the inhibition at 10 µM against MAO A (10 μM) and on MAO B (10 μM) were 29% and 77%, respectively.
Regarding `CCOc1ccc(Oc2ccc(OCc3cc(F)ccc3F)cc2)c(N)c1` [SEA0400, reference compound], the pIC50 at hNCX1 (setting [1]) was 5.66; with L‐type calcium channel, 5.47; against hERG, 5.55; against MAO A, 5.36; on MAO B it was 6.75.
